Earlier results on two compounds are cited in patent publication US10653683B2, “Tiotropium inhalation solution for nebulization” (GLENMARK SPECIALTY S.A., priority 2016, dated 2020).

The conditions of data set [1]: relative to histamine.

On to `C[N+]1(C)C2CC(OC(=O)C(O)(c3cccs3)c3cccs3)CC1C1OC12` (stereo not drawn) [Tiotropium bromide monohydrate, (1α, 2ß, 4ß, 5α, 7ß)-7-[(hydroxydi-2-thienylacetyl)oxy]-9,9-dimethyl-3-oxa-9-azoniatricyclo [3.3.1.02, 4] nonane bromide monohydrate], for which the Solubility in methanol entry (methanol) is “soluble”. For the same compound, the Solubility in water entry (water) was “sparingly soluble”.
For benzalkonium chloride, the “Bronchoconstrictor properties, times less potent than histamine” value in data set [1] is recorded as 7.4 times.
